Drawing on PubChem BioAssay AID743396 (Broad Institute, 2014), this text covers AC40 for 17 compounds.

Several values for one entry are separate records, joined by “and”; a condition that tells them apart may be missing. Identical values can stand only once. Activity calls are given as the source filed them.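 How the source made its calls: active means fitted curve reaches a 40% rise in fluorescent cells at or below the top valid dose; inactive means opposite-direction effect, or the rest.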

The experiment has as its system mTEFS fibroblasts autofluorescence, GFP-channel imaging, 3 days. Description: autofluorescent compounds in non-GFP fibroblasts, dose response, artefact control for X-chromosome reactivation project, imaging, mTEFS fibroblasts, cherry-pick (AID 743396). The note with it: cells pretreated with 5-aza-dC.
Consider `CCOC(=O)C1=C(O)/C(=C/c2cc(OC)c(O)c(OC)c2)SC1=Nc1ccc(OC)cc1`, for which the AC40 was > 19.5 µM (inactive).

Take `NC(=O)c1c(NC(=O)c2ccccc2)sc2c1CCN(Cc1ccccc1)C2`: the AC40 was > 19.5 µM (inactive).

Turning to `Cc1cccc(NC(=O)/C=C/c2ccc([N+](=O)[O-])s2)c1`, the AC40 was 3.68 µM.

In the case of `CC(O)CN(CC(C)O)c1ccc2c(c1)Cc1cc([N+](=O)[O-])ccc1-2` (configuration not stated), the AC40 was > 19.5 µM (inactive).

In the case of `CC[n+]1c(/C=C/C=C/N(C(C)=O)c2ccccc2)sc2cc(OC)ccc21`, the AC40 is 2.73 µM.

Consider `COC1=CC(=O)c2c(ccc3ncnc(N)c23)C1=O`, for which the AC40 was > 19.5 µM (inactive).

Regarding `COc1ccc(C(=O)c2sc3nc(C)cc(-c4cccs4)c3c2N)cc1OC`, the AC40 was 16.3 µM.

On to `COC(=O)C1=C(C)NC(C)=C(C(=O)OC)C1C(=O)OCC(=O)c1ccc(F)cc1`, for which the AC40 is > 19.5 µM (inactive).

In the case of `Cc1ccc(-c2cn3nc(-c4ccccc4)c(-c4ccccc4)nc3n2)cc1`, the AC40 was 7.88 µM.

Turning to `COc1cc(N2CCCC2)c(OC)cc1/C=C1/NC(=S)NC1=O`, the AC40 was > 19.5 µM (inactive).

For `C[C@H]1CN([C@@H](C)CO)S(=O)(=O)c2ccc(Br)cc2O[C@H]1CN(C)C(=O)c1cccnc1`, the AC40 was > 6.8 µM (inactive).

Consider `C=CCN1C(=O)[C@@H]2Cc3c([nH]c4ccccc34)C(c3cc(OC)c(OC)c(OC)c3)N2C1=S` (some centres not stated), for which the AC40 was 15.5 µM.

With `CCN1C(=O)[C@@H]2Cc3c([nH]c4ccccc34)C(c3cc(OC)c(OC)c(OC)c3)N2C1=S` (some centres not stated), the AC40 is > 19.5 µM (inactive).

In the case of `COc1ccc(-[n+]2c(C)cc(/C=C3\Sc4ccccc4N3C)cc2C)cc1`, the AC40 is 1.58 µM.

Turning to `CCN(CC)C1=CC2=CC(=C(C#N)C#N)CCC2CC1` (configuration not stated), the AC40 was > 19.5 µM (inactive).

Turning to `O=c1[nH]c(=O)n([C@H]2C[C@H](O)[C@@H](CO)O2)cc1C(F)(F)F`, the AC40 was > 19.5 µM (inactive).

For `C[n+]1c2cc(N)ccc2cc2ccc(N)cc21`, the AC40 is 0.522 µM and 0.378 µM.
